Consider three molecules from US5434295A (priority 1994, dated 1995).

Structures are written as SMILES. Where two headings read alike, the source gives them in different places.

For assay [1], the system named is NMDA-induced toxicity in primary cerebral cortical cell cultures. Nature of the assay: Protection of cortical neurons in culture from NMDA-induced toxicity. The conditions noted are these: Rattus norvegicus, NMDA 1000 μM; for inhibition at 10 µM: 10 μM compound. It is filed as cell-based. As to the method: Blockage of NMDA toxicity in tissue culture: Neurons can be grown in culture and survive for several weeks. […] The ability of various compounds to prevent the morphological and metabolic changes induced by NMDA is considered a measure of their neuroprotective activity in culture.
The neuroprotective effects of the compounds of the invention were tested on neurons exposed to various excitotoxins in culture. The compounds tested included HU-259, HU-260, HU-270 and HU-271, which were all shown to have NMDA antagonist properties in mice (Example 13).
The test drugs were examined for their ability to protect neurons in culture from toxic effects of agonists of the different glutamate receptor subtypes (agonists of ionotropic and/or metabotropic glutamate receptors), e.g. NMDA, AMPA, kainate and quisqualate. The culture conditions and assay conditions were all performed as described in Eshhar et al. (NeuroReport 5, No. 3, 1993). In brief, primary cerebral cortical cell cultures were prepared from 18-20 day old rat fetuses by enzymatic dissociation. Resulting cell suspensions were plated on confluent cortical glial cell feder layer (prepared 2 weeks earlier by a similar method). Neurons were grown in MEM media containing 0.6% glucose, FUDR/Uridine mixture and N2 supplement (insulin, progesterone, putrescine, selenium and transferrin). Cells at 10 days in culture were exposed to the various toxins either alone, or in the presence of the tested compounds. All exposures were carried out at 37° C. for 20-24 hours before assessing neuronal cell damage and neuroprotectant activity. Cell viability was determined morphologically following neuron specific enolase immunostaining of cells using the ABC biotin-avidin complex method, and determined quantitatively by measuring the extent of mitochondrial activity in living cells using the XTT-based assay. XTT is reduced by mitochondrial dehydrogenase to a soluble colored formazan. The density of color formation (O.D.), which is proportional to mitochondrial activity, was measured by a plate ELISA reader. The extent of neuroprotectant activity is expressed as % of cells rescued by the drugs tested.
Neuroprotectant activity of HU-259 (10 μM)--was assessed using orphological criteria only. Morphological observations (as determined by neuron specific enolase immunostaining) clearly indicated complete neuroprotection (100%).

The next assay concerns NMDA toxicity in mice. The assay is described as follows: Prevention of NMDA neurotoxicity in mice (neurological scores). Format: in vivo, mice (Balb/C). The conditions noted are these: for maximum improvement of neurological scores: NMDA 60 mg/kg s.c., i.p. or i.v. pretreatment; for neurological scores/symptoms after NMDA toxicity: pretreated mice. From the text:
Blockade of NMDA toxicity in mice: Subcutaneous injection of NMDA in mice results in a dose-dependent increase in the number, severity and duration of several neurological symptoms, culminating in death at the higher dose range. The symptoms include tail flicks, circling, tremor and convulsions. The ability of various compounds, when administered to mice prior to NMDA, to reduce the number and severity of these symptoms is a considered a measure of their potency in preventing NMDA behavioral toxicity in vivo.
Test drugs were administered intraperitoneally at the stipulated doses in a solution of MCT oil. Each point represents the mean scores of eight mice treated with the drug compared to the same number of control animals receiving the vehicle alone.
Test compounds were administered at a standard dose of 10 mg/kg either intraperitoneally (in MCT oil) or intravenously (in a submicronized emulsion).
Bicyclic compounds of the present invention were tested for their ability to block NMDA toxicity in mice. Balb/C mice received NMDA by subcutaneous injection at a dose of 60 mg/kg which was determined to be the LD20 dose of this substance. Thirty minutes prior to injection of the neurotoxin the animals received either (a) an intravenous injection of the test drug formulated in submicronized emulsion as described in Example 11); (b) an intraperitoneal injection of the test drug dissolved in MCT oil; (c) or the appropriate vehicle alone (control groups). The improvement rate afforded by the test drug was defined as the difference between scores of animals receiving the formulated drug and those receiving the vehicle alone. The doses tested for HU-254, HU-259 and HU-260 ranged from 5 to 30 mg/kg.
At least 6-8 mice were included per test group. The materials were tested in a masked study to preclude bias of the observer of clinical symptoms.
The behavioral scoring method (tabulated above) was used as the basic quantitative procedure for evaluating the level of NMDA or kainic acid neurotoxicity in mice. The neurological clinical status of each animal was calculated by totalling the scores of all signs that were evident throughout the study. Duration of symptoms was also taken into account.
If duration of a neurological system is up to 30 seconds, the score is s-1. Duration between 0.5-3.0 mins, the score is s. Duration longer than 3 mins, the score is s+1.

The mark [2] stands for this setting: Cortical neurone, read-out: % of cells rescued from NMDA-induced toxicity.

For the molecule `CCCCCCC(C)(C)c1cc(OC(C)=O)c([C@H]2C=C(C(=O)O)[C@H]3C[C@@H]2C3(C)C)c(OC(C)=O)c1` [(+)-4-[4-DMH-2,6 diacetoxyphenyl]-2-carboxy-6,6-dimethylbicyclo[3.1.1]hept-2-en], the inhibition at 10 µM in assay [1] (morphological criteria only (neuron specific enolase immunostaining), read-out: % of cells rescued from NMDA-induced toxicity / complete neuroprotection) was 100%. Also, in the assay with NMDA toxicity in mice, the “maximum improvement of neurological scores” value was 30-40% and the “neurological scores/symptoms after NMDA toxicity” value (shortened to “neurological scores/symptoms”) is reported as “improvement in neurological scores”.
Regarding `CCCCCCC(C)(C)c1cc(OC(C)=O)c([C@H]2C=C(C(=O)N(CC)CC)[C@H]3C[C@@H]2C3(C)C)c(OC(C)=O)c1` [HU-270], in assay [1] (setting [2]), the inhibition at 10 µM came to 0%. In the assay with NMDA toxicity in mice, the “maximum improvement of neurological scores” value is 30-40% and the “neurological scores/symptoms” value is “decreased neurological symptoms”.
Take `CCCCCCC(C)(C)c1cc(OC(C)=O)c([C@H]2C=C(C(=O)NCCO)[C@H]3C[C@@H]2C3(C)C)c(OC(C)=O)c1` [HU-271]: in assay [1] (Cortical neurone, 1 μM compound, read-out: % of cells rescued from NMDA-induced toxicity (concentration dependence)), the inhibition at 1 µM turned out to be 25%. Moreover, in assay [1] (Cortical neurone, 2 μM compound, read-out: % of cells rescued from NMDA-induced toxicity (concentration dependence)), the inhibition at 2 µM is 27%. The inhibition at 5 µM in assay [1] (Cortical neurone, 5 μM compound, read-out: % of cells rescued from NMDA-induced toxicity (concentration dependence)) amounted to 68%. In assay [1] (setting [2]), the inhibition at 10 µM is 100%. For the same molecule, in the assay on NMDA toxicity in mice, the “maximum improvement of neurological scores” value is 30-40% and the “neurological scores/symptoms” value is on record as “decreased neurological symptoms”.
